Measurements from US20100021420A1, “COMBINATIONS OF PYRAZOLE DERIVATIVES FOR THE INHIBITION OF CDKS AND GSK'S” (ASTEX THERAPEUTICS LIMITED, priority 2006, published 2010).

Columns and labels:
[1] = antitumour agent; cited from earlier work
[2] = system: Human colon carcinoma cell line HT29; experiment: IC50 shift assay (combination), HT29 cells; format: cell-based; conditions: concurrent 72 hours, camptothecin 24 hours then Compound I 48 hours, or Compound I prior to camptothecin
Experimental: Human colon carcinoma cell line HT29 (ECACC No. 91072201) cells were seeded onto 96-well tissue culture plates at a concentration of 5×10^3 cells/well. Cells were allowed to recover overnight prior to addition of compound(s) or vehicle control (0.2% DMSO) as follows;
Compounds were added according to one of the following schedules; • a) Concurrent for 72 hours. • b) Compound I for 24 hours followed by camptothecin for 48 hours. • c) Camptothecin for 24 hours followed by Compound I for 48 hours.
Following a total of 72 hours compound incubation, Alamar Blue™ was added to a final concentration of 10% (v/v) and incubated at 37° C. for 6 hours. Fluorescent product was quantified by reading at d535/25× (excitation) and d590/20 m (emission) on a Fusion Reader (Perkin Elmer). The IC50 for camptothecin in the presence of varying doses of Compound I was determined.

A2780 cells = experiment: IC50 shift assay (combination), A2780 cells; format: cell-based
SkBR3 cell line = experiment: IC50 shift assay (combination), SkBR3 cells; format: cell-based
HCT116 cell line = experiment: IC50 shift assay (combination), HCT116 cells; format: cell-based
[3] = system: human colon carcinoma cell line HCT 116; experiment: Anti-proliferative activity, HCT-116 cell line; format: cell-based; conditions: HCT 116 (ECACC No. 91091005)
Excerpt: See Example 15 of WO 2006/077426 at pages 100-101 (which is incorporated herein by reference).

OVCAR-3 tumour cells = conditions: in which PKB is amplified, concentrations of 50 and 100 microM; cited from earlier work
PKC = conditions: cited from earlier work
[4] = mice; doses 10 times more than were needed for antitumour activity; cited from earlier work
[5] = Vapour sorption/desorption analysis; format: physicochemical
Experimental: Approximately 20 mg of sample was placed into a wire-mesh vapour sorption balance pan and loaded into an ‘IgaSorp’ vapour sorption balance (Hiden Analytical Instruments) held at 25+/−0.1° C. The sample was then dried by maintaining a 0% humidity environment (using mass flow control apparatus) until no further weight change was recorded. Subsequently, the sample was then subjected to a ramping profile from 0-90% relative humidity (% RH) at 10% RH increments, maintaining the sample at each step until equilibration had been attained (99.5% step completion).
Upon reaching equilibration, the % RH within the apparatus was ramped to the next step and the equilibration procedure repeated. After completion of the sorption cycle, the sample was then dried using the same procedure. The weight change during the sorption/desorption cycles was then monitored, allowing for the hygroscopic nature of the sample to be determined.

[6] = Thermogravimetric analysis; format: physicochemical
Experimental: Approximately 5 mg of sample (accurately weighed) was placed into a platinum TGA pan and loaded into a TGA 7 gravimetric analyser. The sample under study was then heated at a rate of 10° C./min (from ambient to 300° C.) and the resulting change in weight monitored. A dry nitrogen purge gas at a flow rate of 20 ml/min was used to produce an inert atmosphere and prevent oxidation of the sample during heating. Prior to analysis the instrument was weight calibrated using a 100 mg reference standard and temperature calibrated using an Alumel reference standard (using the Curie point transition temperature).

[7] = system: Acute Promyelocytic Leukemia (APL); conditions: cited from earlier work
[8] = system: P-glycoprotein-overexpressing subline of leukemic cell line CCRF-CEM; conditions: cited from earlier work
CLL = conditions: initial therapy, symptomatic CLL patients, cited from earlier work

CCN[C@H]1CO[C@@H](O[C@H]2[C@H](O[C@H]3C#C/C=C\C#C[C@]4(O)CC(=O)C(NC(=O)OC)=C3/C4=C\CSSSC)O[C@H](C)[C@@H](NO[C@H]3C[C@H](O)[C@H](SC(=O)c4c(C)c(I)c(O[C@@H]5O[C@@H](C)[C@H](O)[C@@H](OC)[C@H]5O)c(OC)c4OC)[C@@H](C)O3)[C@@H]2O)C[C@@H]1OC [Calicheamicin]
potency relative to adriamycin [1]: over 1,000 times

O=C(NC1CCNCC1)c1n[nH]cc1NC(=O)c1c(Cl)cccc1Cl [Compound I, 4-(2,6-dichloro-benzoylamino)-1H-pyrazole-3-carboxylic acid piperidin-4-ylamide]
effect of combination with camptothecin in IC50 shift assay [2]: additive | effect of combination with Paclitaxel in IC50 shift assay (A2780 cells; Paclitaxel 24 h followed by Compound I 48 h): synergy | effect of combination with 5-FU in IC50 shift assay (A2780 cells; added concurrently for 72 h): mildly synergistic | effect of combination with Iressa in IC50 shift assay (A2780 cells; added concurrently for 72 h): synergistic | effect of combination with Paclitaxel in IC50 shift assay (A2780 cells; added concurrently for 72 h): Additive | effect of combination with Cisplatin in IC50 shift assay (A2780 cells; concurrently for 72 h or Cisplatin 24 h followed by compound I 48 h): additive | effect of combination with Etoposide in IC50 shift assay (A2780 cells; concurrently for 72 h or Etoposide 24 h followed by compound I 48 h): additive | effect of combination with Gemcitibine in IC50 shift assay (A2780 cells; concurrently for 72 h or Gemcitibine 24 h followed by Compound I 48 h): additive | effect of combination with Vinblastine in IC50 shift assay (A2780 cells; concurrently for 72 h or Vinblastine 24 h followed by compound I 48 h): additive | effect of combination with Iressa (synergy) confirmed (SkBR3 cell line): confirmed | effect of combination with Iressa (synergy) confirmed (HCT116 cell line): confirmed

O=C(NC1CCNCC1)c1n[nH]cc1NC(=O)c1c(Cl)cccc1Cl [Example 1]
IC50 [3]: < 20 µM

O=S(=O)(NCCNCC=C(c1ccccc1)c1ccccc1)c1cccc2cnccc12 [NL-71-101]
apoptosis (OVCAR-3 tumour cells): induced apoptosis | IC50 (PKC): 104 µM

CCOC(=O)c1ccc2[nH]c3c(OC)c4[nH]c5ccc(C(=O)OCC)cc5c4cc3c2c1 [SR-13668]
adverse effects [4]: no adverse effects

CS(=O)(=O)N1CCC(NC(=O)c2n[nH]cc2NC(=O)c2c(Cl)cccc2Cl)CC1 [Set B Example 1, 4-(2,6-dichloro-benzoylamino)-1H-pyrazole-3-carboxylic acid (1-methanesulphonyl-piperidin-4-yl)-amide]
weight loss during initial drying ([5]; 0% RH, 25 °C): approximately 0.01% | hygroscopicity / hydrate formation ([5]; storage in elevated humidity conditions): physically stable with regard to hygroscopicity | total weight increase ([5]; upon equilibration at 90% RH, 25 °C): 0.24% | significant event (thermally induced partial degradation) in TGA plot ([6]; onset prior to the main melt transition): about 288 °C | mass loss (TGA) ([6]; up to 150° C., crystals from Example 5 Step 8): approximately 0.2%

CC1=C(/C=C/C(C)=C/C=C/C(C)=C/C(=O)O)C(C)(C)CCC1 [Tretinoin]
remissions in APL patients [7]: 64-100%

C/C1=C/C[C@@H](/C(C)=C/c2csc(C)n2)OC(=O)C[C@H](O)C(C)(C)C(=O)[C@H](C)[C@@H](O)[C@@H](C)CCC1 [desoxyepothilone B]
IC50 [8]: 0.017 µM

Nc1nc(F)nc2c1ncn2[C@@H]1O[C@H](CO)[C@@H](O)[C@@H]1O [fludarabine, 9-β-D-arabinofuranosyl-2-fluoro-adenine]
rate of complete responses (CLL; v 3% with alkylator-based therapies): 27% | duration of progression-free survival (CLL; v 17 months with alkylator-based therapies): 33 months
